Where a chain is given by its changes, count along the chain named. Where two headings read alike, the source gives them in different places.

Assay [1] concerns the target T1, human 3β-HSD1 (Homo sapiens, UniProt P14060). The assay is described as follows: Michaelis-Menten kinetics of 3β-HSD substrate. It counts as biochemical. The settings on record: pH 7.4.
Assay [2] concerns the target T2, human 3β-HSD2 (Homo sapiens, UniProt P26439).
T2 sequence (P26439 1-372): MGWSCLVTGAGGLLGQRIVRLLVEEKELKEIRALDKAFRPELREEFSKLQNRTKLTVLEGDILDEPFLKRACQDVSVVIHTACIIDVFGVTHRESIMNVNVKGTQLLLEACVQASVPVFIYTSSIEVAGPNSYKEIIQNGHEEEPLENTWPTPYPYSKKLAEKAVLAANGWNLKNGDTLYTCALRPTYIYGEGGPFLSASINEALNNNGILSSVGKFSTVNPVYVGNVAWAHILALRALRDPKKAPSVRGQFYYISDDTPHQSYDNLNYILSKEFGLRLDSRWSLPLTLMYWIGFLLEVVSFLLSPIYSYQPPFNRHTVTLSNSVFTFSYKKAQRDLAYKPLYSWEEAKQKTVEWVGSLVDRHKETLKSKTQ
The assay is described as follows: Michaelis-Menten kinetics of 3β-HSD substrate. Format: biochemical. The settings on record: pH 7.4.

For assay [3], the target named is T3, R195P-1 mutant of 3β-HSD1 (Homo sapiens, UniProt P14060, R196P).
T3 sequence (P14060 1-373 R196P): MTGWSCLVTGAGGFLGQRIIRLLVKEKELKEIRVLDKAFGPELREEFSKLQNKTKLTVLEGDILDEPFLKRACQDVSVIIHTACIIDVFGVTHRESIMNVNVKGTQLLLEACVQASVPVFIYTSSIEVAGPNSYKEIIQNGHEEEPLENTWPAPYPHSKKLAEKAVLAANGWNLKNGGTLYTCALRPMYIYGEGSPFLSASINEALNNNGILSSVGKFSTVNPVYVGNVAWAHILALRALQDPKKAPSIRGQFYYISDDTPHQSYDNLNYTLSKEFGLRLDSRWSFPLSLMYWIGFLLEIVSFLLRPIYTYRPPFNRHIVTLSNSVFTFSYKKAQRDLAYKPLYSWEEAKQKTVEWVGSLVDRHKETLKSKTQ
The assay is described as follows: Michaelis-Menten kinetics of 3β-HSD substrate. Format: biochemical. The settings on record: Table 2, substrate DHEA 1–100 μM, NAD+ 0.2 mM, pH 7.4.

In assay [4] the target is T4, P195R-2 mutant of 3β-HSD2 (Homo sapiens, UniProt P26439, P195R).
T4 sequence (P26439 1-372 P195R): T2 sequence (P26439 1-372) with P195R
The assay can be described thus: Michaelis-Menten kinetics of 3β-HSD substrate. Format: biochemical. Particulars: Table 2, substrate DHEA 1–100 μM, NAD+ 0.2 mM, pH 7.4.

Assay [5] deals with T5, H156Y-1 mutant of 3β-HSD1 (Homo sapiens, UniProt P14060, H157Y).
T5 sequence (P14060 1-373 H157Y): T3 sequence (P14060 1-373 R196P) with H157Y, P196R
The assay can be described thus: Michaelis-Menten kinetics of 3β-HSD substrate. Format: biochemical. The settings on record: Table 4; substrate DHEA 3-100 μM, NAD+ 200 μM, 27° C, pH 7.4.

Assay [6] addresses T1, human 3β-HSD1. The assay can be described thus: Inhibition of 3β-HSD activity of purified enzyme, Dixon analysis. It counts as biochemical.
In assay [7] the target is T2, human 3β-HSD2. The description is as above. Format: biochemical.
The target of assay [8] is T5, H156Y-1 mutant of 3β-HSD1. Described as above. Format: biochemical.
The subject of assay [9] is MCF-7 Tet-off 3β-HSD1 aromatase cells. Particulars: cited from earlier work.
For assay [10], the system named is MCF-7 Tet-off 3β-HSD2 aromatase cells. Particulars: read-out: IC50, proliferation; DHEA-stimulated growth; cited from earlier work.
The subject of assay [11] is other enzymes in steroidogenesis (e.g., 17β-HSD). The settings on record: cited from earlier work.
Assay [12] has as its system MCF-7 Tet-off 3β-HSD1 aromatase cells. Particulars: read-out: EC50, stimulation of growth; cited from earlier work.
Assay [13] concerns MCF-7 Tet-off 3β-HSD2 aromatase cells. Particulars: read-out: EC50, stimulation of growth; cited from earlier work.
Assay [14] has the same test system. The assay can be described thus: Inhibition of DHEA-stimulated proliferation. Format: cell-based, human. The settings on record: for IC50: Homo sapiens, MCF7, 240 h, read-out: IC50, proliferation; for inhibition of growth in the presence of doxycycline: doxycycline 10 ng/ml, DHEA 5.0 nM.
In assay [15] the test system is MCF-7 cells. The assay can be described thus: Proliferation in the absence of DHEA substrate. Format: cell-based, human.
Assay [16] relates to MCF-7 Tet-off 3β-HSD1 aromatase cells. The assay can be described thus: Inhibition of DHEA-stimulated proliferation. The settings on record: for inhibition of growth in the presence of doxycycline: doxycycline 10 ng/ml, DHEA 5.0 nM.
Assay [17] has as its target T3, R195P-1 mutant of 3β-HSD1. The assay can be described thus: Inhibition of 3β-HSD activity of purified enzyme, Dixon analysis. Format: biochemical.
Where [18] appears, read: Table 2, substrate DHEA 1–100 μM, NAD+ 0.2 mM.
[19] abbreviates: Table 4, substrate DHEA 3-100 μM, NAD+ 200 μM, 27° C.
Where [20] appears, read: ratio of proliferation IC50 values.

T1 sequence (P14060 whole entry): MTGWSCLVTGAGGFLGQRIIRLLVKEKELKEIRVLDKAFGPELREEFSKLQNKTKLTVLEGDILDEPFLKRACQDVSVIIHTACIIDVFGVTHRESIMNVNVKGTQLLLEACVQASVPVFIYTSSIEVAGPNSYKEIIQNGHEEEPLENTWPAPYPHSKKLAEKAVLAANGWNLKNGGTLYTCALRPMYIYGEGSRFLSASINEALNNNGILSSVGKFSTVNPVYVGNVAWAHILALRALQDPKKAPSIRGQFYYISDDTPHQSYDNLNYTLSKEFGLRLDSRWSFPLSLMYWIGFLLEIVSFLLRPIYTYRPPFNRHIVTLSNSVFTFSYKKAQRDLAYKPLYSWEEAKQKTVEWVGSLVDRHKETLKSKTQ

As a reminder, the Km is the concentration of substrate that gives half-maximal velocity. In the case of `C[C@]12CC[C@H](O)CC1=CC[C@@H]1[C@@H]2CC[C@]2(C)C(=O)CC[C@@H]12` [DHEA, dehydroepiandrosterone], the 3β-HSD kcat in [1] (setting [18]) worked out at 0.055 s⁻¹; in assay [1] (setting [19]), 0.055 s⁻¹; in [2] (setting [18]), 0.145 s⁻¹; in [2] (setting [19]), 0.118 s⁻¹; in assay [3], 0.128 s⁻¹; in assay [4], 0.0933 s⁻¹. In [5], this compound registered a 3β-HSD kcat of 0.118 s⁻¹. Also, the Michaelis-Menten constant (Km) in [3] (read-out: 3β-HSD Km) came out at 10.7 µM; in assay [4] (read-out: 3β-HSD Km), 7.7 µM.

The term Ki denotes the equilibrium dissociation constant of an inhibitor or competing ligand from its target. A high value points to lower affinity. `C[C@]1(O)CC[C@H]2[C@@H]3CC[C@@]45O[C@]4(C)C(O)=C(C#N)C[C@]5(C)[C@H]3CC[C@@]21C` [epostane]: the Ki in [6] was found to be 70 nM; in assay [7], 980 nM; in assay [8], 1180 nM. For the same compound, the “fold higher affinity vs MCF7 Tet-off 3β-HSD2 aromatase cells” value in [9] (setting [20]) was 12 fold. Also, the IC50 is 200 nM in assay [9] (read-out: IC50, proliferation, DHEA-stimulated growth) and 2400 nM in assay [10]. Further, the “effect on other enzymes in steroidogenesis” value in assay [11] is recorded as “no effect”.

As usually defined, the EC50 is the concentration at which the effect is half-maximal. As to `C[C@]12CC[C@@H]3c4ccc(O)cc4CC[C@H]3[C@@H]1CC[C@@H]2O` [estradiol], the concentration giving a half-maximal response (EC50) in assay [12] is 0.24 nM; in assay [13], 0.32 nM.

For `C[C@]12CC[C@@H]3c4ccc(O)cc4CC[C@H]3[C@@H]1CCC2=O` [estrone], the figures for the concentration giving a half-maximal response (EC50) in assay [12] and in assay [13] were 0.39 nM and 0.34 nM, respectively.

Regarding `N#Cc1ccc(C(c2ccc(C#N)cc2)n2cncn2)cc1` [letrozole], in assay [14], the IC50 turned out to be 0.9 nM and the “inhibition of growth in the presence of doxycycline” value (shortened to “inhibition of growth”) is reported as “little change in rate”. For the same compound, the “stimulation of proliferation / ER-agonist activity” value in [15] is “Neither trilostane nor letrozole stimulated the proliferation”. Also, the “inhibition of growth” value in assay [16] was “little change in rate”.

Consider `C[C@]12CC[C@H]3[C@@H](CC[C@@]45O[C@@H]4C(O)=C(C#N)C[C@]35C)[C@@H]1CC[C@@H]2O` [trilostane, 2α-cyano-4α ,5α-epoxy-17β-ol-androstane-3-one], for which the “fold lower Ki for 3β-HSD1 compared to 3β-HSD2” value in assay [6] (competitive 3β-HSD1 vs noncompetitive 3β-HSD2) is reported as 16 fold. Further, the mode of inhibition result in [7] (Dixon analysis) and in assay [17] (Dixon analysis) was “noncompetitive” in each case. The affinity in assay [17], expressed as Ki, was 2560 ± 220 nM. For the same compound, the IC50 in [14] worked out at 4900 nM; in assay [16] (Homo sapiens, MCF7, 240 h, read-out: IC50, proliferation), 300 nM. The “inhibition of growth” value in assay [14] and in assay [16] was “greatly attenuated” throughout. Besides, the “stimulation of proliferation / ER-agonist activity” value in assay [15] was “Neither trilostane nor letrozole stimulated the proliferation”. Besides, the “effect on other enzymes in steroidogenesis” value in assay [11] is “no effect”. In [16] (setting [20]), the “fold higher affinity vs MCF7 Tet-off 3β-HSD2 aromatase cells” value turned out to be 16 fold.

These data come from article PMC2999670 (The Journal of steroid biochemistry and molecular biology, 2010).
